Species on record: Rattus norvegicus
Assay: DrugMatrix - Regimen: Daily Repeat
Type: toxicity, organism-based, Sprague-Dawley
Set-up: regimen Daily Repeat, gender Male, age 6-8 weeks
Details: in vivo, iv, vehicle 100 % SALINE; for ABSOLUTE BASOPHIL / ABSOLUTE EOSINOPHIL / ABSOLUTE LYMPHOCYTE / ABSOLUTE MONOCYTE / ABSOLUTE SEGMENTED NEUTROPHIL / BASOPHIL / EOSINOPHIL / ERYTHROCYTE COUNT / HEMATOCRIT / HEMOGLOBIN / LEUKOCYTE COUNT / LYMPHOCYTE / MEAN CORPUSCULAR HEMOGLOBIN / MEAN CORPUSCULAR HEMOGLOBIN CONCENTRATION / MEAN CORPUSCULAR VOLUME / MONOCYTE / NEUTROPHIL / NUCLEATED RED BLOOD CELLS: tissue Blood; for ALANINE AMINOTRANSFERASE / ALKALINE PHOSPHATASE / BLOOD UREA NITROGEN / CARBON DIOXIDE / CHOLESTEROL / CREATINE PHOSPHOKINASE / CREATININE / GLUCOSE / LACTATE DEHYDROGENASE / LIPASE / SODIUM / TOTAL BILIRUBIN / TOTAL PROTEIN / URIC ACID / ASPARTATE AMINOTRANSFERASE: tissue Plasma
[1] = 0 mg/kg, 72 h, dose level Control, time 3 day
[2] = 0 mg/kg, 120 h, dose level Control, time 5 day
[3] = 3 mg/kg, 72 h, dose level High, time 3 day

COc1cccc2c1C(=O)c1c(O)c3c(c(O)c1C2=O)C[C@@](O)(C(=O)CO)C[C@@H]3O[C@H]1C[C@H](N)[C@H](O)[C@H](C)O1 [DOXORUBICIN]
ABSOLUTE BASOPHIL [1]: 0 CELLS/uL | ABSOLUTE EOSINOPHIL [1]: 0 CELLS/uL | ABSOLUTE LYMPHOCYTE [1]: 7855.5 CELLS/uL | ABSOLUTE MONOCYTE [1]: 36.17 CELLS/uL | ABSOLUTE SEGMENTED NEUTROPHIL [1]: 575 CELLS/uL | BASOPHIL [1]: 0% | EOSINOPHIL [1]: 0% | ERYTHROCYTE COUNT [1]: 5.14 x10E6/uL | HEMATOCRIT [1]: 33.22% | HEMOGLOBIN [1]: 12.97 G/DL | LEUKOCYTE COUNT [1]: 8.47 x10E3/uL | LYMPHOCYTE [1]: 93.17% | MEAN CORPUSCULAR HEMOGLOBIN [1]: 25.28 pg | MEAN CORPUSCULAR HEMOGLOBIN CONCENTRATION [1]: 39.05 G/DL | MEAN CORPUSCULAR VOLUME [1]: 64.75 fL | MONOCYTE [1]: 0.33% | NEUTROPHIL [1]: 6.5% | NUCLEATED RED BLOOD CELLS [1]: 0 /100WBC | ALANINE AMINOTRANSFERASE [1]: 61.67 u/L | ALKALINE PHOSPHATASE [1]: 292.33 u/L | BLOOD UREA NITROGEN [1]: 11 mg/dL | CARBON DIOXIDE [1]: 34.67 mmol/L | CHOLESTEROL [1]: 71.17 mg/dL | CREATINE PHOSPHOKINASE [1]: 554.5 u/L | CREATININE [1]: 0.31 mg/dL | GLUCOSE [1]: 151 mg/dL | LACTATE DEHYDROGENASE [1]: 88.67 u/L | LIPASE [1]: 18.83 u/L | SODIUM [1]: 144.57 MEQ/L | TOTAL BILIRUBIN [1]: 0.17 mg/dL | TOTAL PROTEIN [1]: 5.8 G/DL | URIC ACID [1]: 0.52 mg/dL | ABSOLUTE BASOPHIL [2]: 0 CELLS/uL | ABSOLUTE EOSINOPHIL [2]: 53.33 CELLS/uL | ABSOLUTE LYMPHOCYTE [2]: 7739.83 CELLS/uL | ABSOLUTE MONOCYTE [2]: 74.83 CELLS/uL | ABSOLUTE SEGMENTED NEUTROPHIL [2]: 832 CELLS/uL | BASOPHIL [2]: 0% | EOSINOPHIL [2]: 0.67% | ERYTHROCYTE COUNT [2]: 5.55 x10E6/uL | HEMATOCRIT [2]: 34.77% | LEUKOCYTE COUNT [2]: 8.7 x10E3/uL | LYMPHOCYTE [2]: 89.17% | MEAN CORPUSCULAR HEMOGLOBIN [2]: 24.6 pg | MEAN CORPUSCULAR HEMOGLOBIN CONCENTRATION [2]: 39.2 G/DL | MEAN CORPUSCULAR VOLUME [2]: 62.78 fL | MONOCYTE [2]: 0.67% | NEUTROPHIL [2]: 9.5% | NUCLEATED RED BLOOD CELLS [2]: 0 /100WBC | ALANINE AMINOTRANSFERASE [2]: 50 u/L | ALKALINE PHOSPHATASE [2]: 271.17 u/L | ASPARTATE AMINOTRANSFERASE [2]: 84.17 u/L | BLOOD UREA NITROGEN [2]: 13.33 mg/dL | CARBON DIOXIDE [2]: 27 mmol/L | CHOLESTEROL [2]: 68 mg/dL | CREATINE PHOSPHOKINASE [2]: 313.67 u/L | CREATININE [2]: 0.21 mg/dL | GLUCOSE [2]: 163 mg/dL | LACTATE DEHYDROGENASE [2]: 75.67 u/L | LIPASE [2]: 11.5 u/L | SODIUM [2]: 143.1 MEQ/L | TOTAL BILIRUBIN [2]: 0.2 mg/dL | TOTAL PROTEIN [2]: 6.08 G/DL | URIC ACID [2]: 0.68 mg/dL | ABSOLUTE BASOPHIL [3]: 0 CELLS/uL | ABSOLUTE EOSINOPHIL [3]: 0 CELLS/uL | ABSOLUTE LYMPHOCYTE [3]: 2936 CELLS/uL | ABSOLUTE MONOCYTE [3]: 0 CELLS/uL | ABSOLUTE SEGMENTED NEUTROPHIL [3]: 230.67 CELLS/uL | BASOPHIL [3]: 0% | EOSINOPHIL [3]: 0% | ERYTHROCYTE COUNT [3]: 5.1 x10E6/uL | HEMATOCRIT [3]: 32.43% | HEMOGLOBIN [3]: 12.87 G/DL | LEUKOCYTE COUNT [3]: 3.17 x10E3/uL | LYMPHOCYTE [3]: 92.67% | MEAN CORPUSCULAR HEMOGLOBIN [3]: 25.23 pg | MEAN CORPUSCULAR HEMOGLOBIN CONCENTRATION [3]: 39.67 G/DL | MEAN CORPUSCULAR VOLUME [3]: 63.63 fL | MONOCYTE [3]: 0% | NEUTROPHIL [3]: 7.33% | NUCLEATED RED BLOOD CELLS [3]: 0 /100WBC | ALANINE AMINOTRANSFERASE [3]: 53.33 u/L | ALKALINE PHOSPHATASE [3]: 266 u/L | ASPARTATE AMINOTRANSFERASE [3]: 81.33 u/L | BLOOD UREA NITROGEN [3]: 16.67 mg/dL | CARBON DIOXIDE [3]: 31.33 mmol/L | CHOLESTEROL [3]: 79.33 mg/dL | CREATINE PHOSPHOKINASE [3]: 216.67 u/L | CREATININE [3]: 0.18 mg/dL | GLUCOSE [3]: 145 mg/dL | LACTATE DEHYDROGENASE [3]: 77.67 u/L | LIPASE [3]: 24 u/L | SODIUM [3]: 143.8 MEQ/L | TOTAL BILIRUBIN [3]: 0.1 mg/dL | TOTAL PROTEIN [3]: 5.87 G/DL | URIC ACID [3]: 0.5 mg/dL
